16 compounds from US11091428B2 (HAPLOGEN GMBH, priority 2016, dated 2021) can be followed below.

pEC50, pIC50: −log10 of the molar value. Read-outs that look alike come from different tables or passages of the source.

In one test the target is T1, PLA2G16 (Homo sapiens, UniProt P53816).
T1 construct: Hexa-His (N); made in house; host or cells: E. coli BL21(DE3)
T1 sequence (P53816 1-162): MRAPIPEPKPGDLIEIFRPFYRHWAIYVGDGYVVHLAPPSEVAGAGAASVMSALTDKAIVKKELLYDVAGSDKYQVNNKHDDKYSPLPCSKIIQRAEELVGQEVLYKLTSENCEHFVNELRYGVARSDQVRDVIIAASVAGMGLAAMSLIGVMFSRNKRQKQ
Kind of test: Enzyme activity assay for PLA2G16 (Red/Green BODIPY PC-A2 fluorescence). The following applies: His-tagged PLA2G16, 4 min pre-incubation, 2 nM to 50 μM; read-out: IC50 values of the compounds determined in the enzyme activity assay for PLA2G16. In kind it is biochemical. In a few lines:
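IC50 from non-linear fits of fluorescence rise (480/530 nm, 10 min) after adding Red/Green BODIPY PC-A2 mixed with DOPC/DOPG/cholesterol liposomes. Recombinant His-tagged human enzyme, bacterially expressed, was first exposed to inhibitor (2 nM–50 μM final) for 4 min in 50 mM Tris pH 8.5, 100 mM NaCl, 5 mM glutathione.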

The test system of test [1] is picornaviruses (CVB1, HRV-A2, HRV-A23, EV-68). As to the kind of experiment: Anti-picornavirus cytopathic effect (CPE) reduction assay on HeLa H1 cells. The settings on record: HeLa H1 cells, 48 h, category from averaging the EC50 values from four picornaviruses (CVB1, HRV-A2, HRV-A23, EV68), read-out: EC50 values of the compounds determined in the anti-picornavirus assay. In kind it is cell-based. The method, boiled down:
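Cytopathic-effect protection: EC50 from non-linear regression of cell viability (CellTiterBlue, 560/590 nm) 48 h post-infection, scaled between infected and mock-infected vehicle wells. Compound dilutions added to HeLa H1 cells 2 h before virus (MOI causing complete CPE within 2 days), in DMEM + 2% FBS; categories average the four viruses.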
On the technique in general: Damage to the host cells serves as the signal in cytopathic effect assays.

By pIC50 is commonly meant the IC50 on a negative log10 scale, so that one unit is a factor of ten. Usually pEC50 stands for −log10 of the EC50, conventionally taken in molar units.

Consider `CNC(=O)C(=O)C(CC1CCC1)N(C=O)Cc1ccccc1` (centres unmarked) [FP 196, 3-(N-Benzylformamido)-4-cyclobutyl-N-methyl-2-oxobutanamide], for which, on PLA2G16, the pIC50 was over 6.00. Besides, in test [1] (Enterovirus B, HeLa H1, 48 h), the negative logarithm of the EC50 (pEC50) was 5.00 to 6.00.

Take `N#CC1CC(NC(=O)C(=O)[C@H]2CCC(=O)N2Cc2ccccc2)C1` (stereo partly drawn) [FP 303, 2-[(2R)-1-Benzyl-5-oxopyrrolidin-2-yl]-N-(3-cyanocyclobutyl)-2-oxoacetamide]: the negative-log IC50 (pIC50) at PLA2G16 was over 6.00. Further, the pEC50 in test [1] (Enterovirus B, HeLa H1, 48 h) was 5.00 to 6.00.

Regarding `Cc1ccncc1C(=O)NC(C)C(=O)C(=O)NCC1CCCCC1` (centres unmarked) [FP 209, N-(Cyclohexylmethyl)-3-[(4-methylpyridin-3-yl)formamido]-2-oxobutanamide], the negative logarithm of the IC50 (pIC50) on PLA2G16 is over 6.00. Moreover, in test [1] (Enterovirus B, HeLa H1, 48 h), the pEC50 was 5.00 to 6.00.

With `CNC(=O)C(=O)C1N(Cc2ccccc2)C(=O)CC12CC2` (centres unmarked) [FP 347, 2-{5-Benzyl-6-oxo-5-azaspiro[2.4]heptan-4-yl}-N-methyl-2-oxoacetamide], on PLA2G16, the pIC50 is over 6.00. For the same compound, the negative logarithm of the EC50 (pEC50) in test [1] (Enterovirus B, HeLa H1, 48 h) was over 6.00.

For the compound `CC(C)NC(=O)C(=O)C(C)N(C=O)C1CCCCC1` (centres unmarked) [FP 36, 3-(N-Cyclohexylformamido)-2-oxo-N-(propan-2-yl)butanamide], at PLA2G16, the negative logarithm of the IC50 (pIC50) was over 6.00. Further, the pEC50 in test [1] (Enterovirus B, HeLa H1, 48 h) was 5.00 to 6.00.

As to `COc1ccccc1N(C=O)C(C)C(=O)C(=O)NCc1cnccn1` (centres unmarked) [FP 104, 3-[N-(2-Methoxyphenyl)formamido]-2-oxo-N-[(pyrazin-2-yl)methyl]butanamide], on PLA2G16, the pIC50 was 5.00 to 6.00. For the same compound, in test [1] (Enterovirus B, HeLa H1, 48 h), the negative logarithm of the EC50 (pEC50) is under 5.00.

For `CC(C(=O)C(=O)NCC1CC1)N(C=O)CC1CCCCC1` (centres unmarked) [FP 38, 3-[N-(Cyclohexylmethyl)formamido]-N-(cyclopropylmethyl)-2-oxobutanamide], on PLA2G16, the negative logarithm of the IC50 (pIC50) is over 6.00. Also, the negative logarithm of the EC50 (pEC50) in test [1] (Enterovirus B, HeLa H1, 48 h) is over 6.00.

As to `CCC(=O)N(c1ccccc1OC)C(C)C(=O)C(=O)NCc1cccc(Cl)c1` (centres unmarked) [FP 141, N-[(3-Chlorophenyl)methyl]-3-[N-(2-methoxyphenyl)propanamido]-2-oxobutanamide], at PLA2G16, the pIC50 is over 6.00. Moreover, the pEC50 in test [1] (Enterovirus B, HeLa H1, 48 h) was 5.00 to 6.00.

Turning to `CC(C(=O)C(=O)NCC1CCCCC1)N(C)C(=O)C1CC1` (centres unmarked) [FP 146, N-(Cyclohexylmethyl)-3-(1-cyclopropyl-N-methylformamido)-2-oxobutanamide], the negative logarithm of the IC50 (pIC50) on PLA2G16 is over 6.00. The negative-log EC50 (pEC50) in test [1] (Enterovirus B, HeLa H1, 48 h) is 5.00 to 6.00.

For `COc1ccccc1N(C=O)C(C)C(=O)C(=O)NCc1cccnc1` (centres unmarked) [FP 89, 3-[N-(2-Methoxyphenyl)formamido]-2-oxo-A[(pyridin-3-yl)methyl]butanamide], the pIC50 on PLA2G16 was over 6.00. For the same compound, in test [1] (Enterovirus B, HeLa H1, 48 h), the pEC50 is under 5.00.

On to `O=C(NC1CC1)C(=O)C1CCC(=O)N1Cc1ccc(Cl)c(F)c1` (centres unmarked) [FP 232, 2-{1-[(4-Chloro-3-fluorophenyl)methyl]-5-oxopyrrolidin-2-yl}-N-cyclopropyl-2-oxoacetamide], for which, at PLA2G16, the negative-log IC50 (pIC50) was over 6.00. In addition, the negative logarithm of the EC50 (pEC50) in test [1] (Enterovirus B, HeLa H1, 48 h) is 5.00 to 6.00.

For the compound `CCNC(=O)C(=O)C1N(Cc2ccccc2)C(=O)CC12CC2` (centres unmarked) [FP 348, 2-{5-Benzyl-6-oxo-5-azaspiro[2.4]heptan-4-yl}-N-ethyl-2-oxoacetamide], the pIC50 at PLA2G16 is over 6.00. Further, the pEC50 in test [1] (Enterovirus B, HeLa H1, 48 h) is over 6.00.

With `CCC(NC(=O)c1ccncc1)C(=O)C(=O)NCC1CCCCC1` (centres unmarked) [FP 208, N-(Cyclohexylmethyl)-2-oxo-3-[(pyridin-4-yl)formamido]pentanamide], the negative logarithm of the IC50 (pIC50) on PLA2G16 is over 6.00. In addition, the pEC50 in test [1] (Enterovirus B, HeLa H1, 48 h) was under 5.00.

As to `C[C@@H]1CC(=O)N(Cc2ccccc2)[C@@H]1C(=O)C(=O)NC1CC1` (single isomer, unassigned) [FP 338], the negative logarithm of the IC50 (pIC50) on PLA2G16 was over 6.00. The pEC50 in test [1] was 5.00 to 6.00.

As for `CC1(NC(=O)C(=O)C2CCC(=O)N2Cc2ccccc2)CC1` (centres unmarked) [FP 246, 2-(1-Benzyl-5-oxopyrrolidin-2-yl)-N-(1-methylcyclopropyl)-2-oxoacetamide], the pIC50 on PLA2G16 was over 6.00. Besides, the negative logarithm of the EC50 (pEC50) in test [1] (Enterovirus B, HeLa H1, 48 h) was 5.00 to 6.00.

As to `COC(=O)CNC(=O)C(=O)C(C)N(C=O)Cc1ccccc1` (centres unmarked) [FP 56, Methyl 2-[3-(N-benzylformamido)-2-oxobutanamido]acetate], the negative logarithm of the IC50 (pIC50) on PLA2G16 is over 6.00. Besides, in test [1] (Enterovirus B, HeLa H1, 48 h), the pEC50 is under 5.00.
